Here are results for eight compounds from ChEMBL document CHEMBL1201862, “PubChem BioAssay data set” (2004).

Counter-ions that a name gives are not always drawn. The source made the active and inactive calls. Bounds are passed on as bounds.

The nature of experiment [1]: viability loss in Vero cells – cytotoxicity control for Vif-APOBEC3G degradation inhibitor project, dose response (AID 1117358). The conditions noted are these: Vero. Format: functional.
Experiment [2] has as its target T1, RNA-binding protein pos-1 (Caenorhabditis elegans, UniProt G5EF15).
T1 sequence (G5EF15 whole entry): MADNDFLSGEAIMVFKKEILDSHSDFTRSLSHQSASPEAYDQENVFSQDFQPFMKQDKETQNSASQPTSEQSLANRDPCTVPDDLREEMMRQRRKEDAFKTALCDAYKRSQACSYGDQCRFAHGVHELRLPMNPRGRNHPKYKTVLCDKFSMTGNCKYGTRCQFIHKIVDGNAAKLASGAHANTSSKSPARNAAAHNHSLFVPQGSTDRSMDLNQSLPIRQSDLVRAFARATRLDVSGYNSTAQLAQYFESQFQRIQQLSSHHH
The experiment is described as follows: disruptors of C. elegans POS-1 RNA interaction – biochemical, fluorescence polarization, dose response (AID 1964).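 Note: purified POS-1 fused to maltose binding protein made in E. coli; potency of compounds blocking POS-1 binding to fluorescent RNA.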

Experiment [3] deals with T2, Zinc finger protein mex-5 (Caenorhabditis elegans, UniProt Q9XUB2).
T2 sequence (Q9XUB2 whole entry): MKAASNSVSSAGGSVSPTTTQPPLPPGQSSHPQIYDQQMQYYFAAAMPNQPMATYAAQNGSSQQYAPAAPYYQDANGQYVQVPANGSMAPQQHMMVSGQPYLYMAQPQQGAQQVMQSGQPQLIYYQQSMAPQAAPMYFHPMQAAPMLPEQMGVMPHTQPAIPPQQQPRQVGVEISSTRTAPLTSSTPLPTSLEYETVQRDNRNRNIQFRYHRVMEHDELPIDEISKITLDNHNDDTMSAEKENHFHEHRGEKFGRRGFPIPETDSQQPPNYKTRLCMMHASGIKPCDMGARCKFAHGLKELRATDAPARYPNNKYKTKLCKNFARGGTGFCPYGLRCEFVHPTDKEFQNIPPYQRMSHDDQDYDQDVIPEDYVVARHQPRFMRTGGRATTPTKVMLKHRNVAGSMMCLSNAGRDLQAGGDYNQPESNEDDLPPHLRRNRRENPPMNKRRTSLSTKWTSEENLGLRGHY
The experiment is described as follows: potency of MEX-5 RNA-binding blockers – biochemical, C. elegans, fluorescence polarization, dose response (AID 1960).

In experiment [4] the target is T3, Apoptotic protease-activating factor 1 (Homo sapiens, UniProt O14727).
T3 sequence (O14727 whole entry): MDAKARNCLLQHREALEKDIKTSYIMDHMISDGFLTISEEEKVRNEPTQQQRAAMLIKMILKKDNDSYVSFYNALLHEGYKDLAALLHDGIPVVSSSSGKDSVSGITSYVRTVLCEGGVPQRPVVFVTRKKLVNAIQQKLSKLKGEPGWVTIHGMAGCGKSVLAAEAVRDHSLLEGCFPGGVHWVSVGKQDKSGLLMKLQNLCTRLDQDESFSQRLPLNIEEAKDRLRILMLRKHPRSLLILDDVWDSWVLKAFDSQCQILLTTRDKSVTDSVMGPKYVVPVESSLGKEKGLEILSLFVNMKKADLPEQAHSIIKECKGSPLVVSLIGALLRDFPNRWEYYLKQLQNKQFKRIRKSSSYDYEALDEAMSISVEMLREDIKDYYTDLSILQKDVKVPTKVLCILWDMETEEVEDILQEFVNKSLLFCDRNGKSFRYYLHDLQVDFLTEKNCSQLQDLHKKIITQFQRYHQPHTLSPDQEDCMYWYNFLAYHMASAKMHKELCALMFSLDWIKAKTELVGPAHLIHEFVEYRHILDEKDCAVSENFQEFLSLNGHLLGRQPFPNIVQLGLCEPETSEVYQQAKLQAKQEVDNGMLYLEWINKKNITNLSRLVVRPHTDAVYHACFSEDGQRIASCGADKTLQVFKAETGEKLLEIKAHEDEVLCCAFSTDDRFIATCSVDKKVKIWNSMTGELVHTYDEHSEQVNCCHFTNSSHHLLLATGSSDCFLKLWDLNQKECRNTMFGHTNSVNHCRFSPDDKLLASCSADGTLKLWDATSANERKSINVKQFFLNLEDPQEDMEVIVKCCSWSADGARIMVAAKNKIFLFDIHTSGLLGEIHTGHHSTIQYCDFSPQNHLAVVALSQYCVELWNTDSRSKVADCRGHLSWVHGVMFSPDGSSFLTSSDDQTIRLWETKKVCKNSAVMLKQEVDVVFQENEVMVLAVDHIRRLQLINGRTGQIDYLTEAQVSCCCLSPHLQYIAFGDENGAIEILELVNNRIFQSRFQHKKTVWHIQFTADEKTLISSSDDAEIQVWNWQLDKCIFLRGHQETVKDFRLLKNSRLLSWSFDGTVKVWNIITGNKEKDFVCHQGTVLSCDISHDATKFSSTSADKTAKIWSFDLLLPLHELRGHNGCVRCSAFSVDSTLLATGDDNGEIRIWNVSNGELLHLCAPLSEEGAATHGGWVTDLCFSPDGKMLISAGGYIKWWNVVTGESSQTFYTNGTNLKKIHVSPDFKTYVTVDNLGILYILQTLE
Format: functional.

The target of the next experiment is Genome polyprotein (dengue virus type 2, UniProt P29990). The experiment is described as follows: flavivirus cap methylation enzyme inhibition – biochemical, confirmation dose response, primary screen (AID 588689). Format: functional.
Genome polyprotein, sequence (P29990 2492-3391 limits assumed): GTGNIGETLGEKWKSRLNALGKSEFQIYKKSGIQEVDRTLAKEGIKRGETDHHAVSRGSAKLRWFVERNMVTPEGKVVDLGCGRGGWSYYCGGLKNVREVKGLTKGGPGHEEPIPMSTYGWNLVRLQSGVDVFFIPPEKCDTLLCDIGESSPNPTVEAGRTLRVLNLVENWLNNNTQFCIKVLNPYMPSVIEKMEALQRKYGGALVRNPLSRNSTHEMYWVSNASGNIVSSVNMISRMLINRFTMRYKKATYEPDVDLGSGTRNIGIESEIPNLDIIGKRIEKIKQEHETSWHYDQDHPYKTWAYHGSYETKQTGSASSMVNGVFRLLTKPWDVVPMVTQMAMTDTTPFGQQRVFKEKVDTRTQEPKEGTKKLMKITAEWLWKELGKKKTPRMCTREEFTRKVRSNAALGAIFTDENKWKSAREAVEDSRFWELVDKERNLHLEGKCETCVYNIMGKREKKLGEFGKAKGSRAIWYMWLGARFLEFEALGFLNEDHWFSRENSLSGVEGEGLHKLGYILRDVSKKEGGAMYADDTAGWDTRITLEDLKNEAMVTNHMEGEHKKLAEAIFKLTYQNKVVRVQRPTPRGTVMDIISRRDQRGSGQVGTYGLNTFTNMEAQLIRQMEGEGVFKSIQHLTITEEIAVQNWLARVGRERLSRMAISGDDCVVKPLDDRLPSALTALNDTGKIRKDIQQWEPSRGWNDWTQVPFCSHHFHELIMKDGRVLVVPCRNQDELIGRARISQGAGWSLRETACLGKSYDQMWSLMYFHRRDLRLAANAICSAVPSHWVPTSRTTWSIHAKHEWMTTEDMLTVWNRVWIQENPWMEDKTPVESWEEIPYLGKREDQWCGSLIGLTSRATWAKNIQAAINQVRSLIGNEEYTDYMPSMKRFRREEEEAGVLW
Experiment [5] has as its target Glutathione-S-transferase (Schistosoma japonicum, UniProt Q26513). Kind of experiment: GST-antibody interaction or FRET quenching – biochemical, TR-FRET, artefact control for Vif-APOBEC3G degradation inhibitor project, dose response (AID 1117362). Format: functional.
Experiment [6] in a line: viability inhibitors of stage V gametocytes – luminescence, dose response (AID 1117278).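 Note: gametocytes exposed to compound for 24 hours.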 It counts as functional, cell-based.
Experiment [7] in a line: viability loss in human Jurkat cells – cell-based, luminescence, cytotoxicity control for P. falciparum gametocyte viability project, dose response (AID 1117277).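 Note: potency reflects loss of cellular ATP meaning fewer viable cells.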 Format: functional.
The nature of experiment [8]: viability loss in A549 lung cells – cell-based, 24 h, CellTiter-Glo luminescence, cherry-picks, cytotoxicity control, dose response (AID 1053115). It counts as functional. The conditions noted are these: A549, 24 h.
Experiment [9] is described as follows: lung carcinoma cell viability loss – CellTiter-Glo luminescence, dry powder, set 17, dose response (AID 1117284). It counts as functional, cell-based. The settings on record: A549.
The target of experiment [10] is T4, Low molecular weight phosphotyrosine protein phosphatase (Homo sapiens, UniProt P24666).
T4 sequence (P24666 whole entry): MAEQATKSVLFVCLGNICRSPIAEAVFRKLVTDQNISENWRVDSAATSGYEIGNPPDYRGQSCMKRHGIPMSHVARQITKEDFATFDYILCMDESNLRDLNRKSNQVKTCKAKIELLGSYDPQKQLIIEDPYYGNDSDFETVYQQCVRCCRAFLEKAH
The experiment is described as follows: inhibition of LMPTP-A enzymatic activity – biochemical, OMFP substrate, fluorescence intensity, set 2, dose response (AID 743307). Format: functional.

Experiment [11] addresses T4, Low molecular weight phosphotyrosine protein phosphatase. The experiment is described as follows: inhibition of human LMPTP enzyme activity – biochemical, absorbance, pNPP substrate, LMPTP-A isoform, set 2, orthogonal assay, dose response (AID 743308). It counts as functional.
Experiment [12] can be described thus: loss of HEK293T viability via ATP – cell-based, plate reader, dry powder, set 10, cytotoxicity control, dose response (AID 743315). The conditions noted are these: HEK293. Format: functional.
Experiment [13] in a line: NIH-3T3 fibroblast cytotoxicity, dose response, cytotoxicity control, cell-based, fluorescence, Alamar Blue, secondary assay (AID 2327).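 Note: NIH-3T3 mouse fibroblasts cultured with fluconazole at 8 µg/mL.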 Format: functional.
A short description of experiment [14]: cells. Format: functional, cell-based.
Experiment [15] can be described thus: fluconazole-exposed Candida albicans growth modulators – fluorescence, retest, confirmation (AID 2467). Format: functional, cell-based.
The nature of experiment [16]: cells. Format: functional, cell-based. The source holds these as a separate data set.
The target of experiment [17] is Serine/threonine-protein phosphatase (Candida dubliniensis (strain CD36 / CBS 7987 / NCPF 3949 / NRRLY-17841) (Yeast), UniProt B9W6M3). The experiment is described as follows: blockers of CaCl2-induced CDRE-lacZ signaling – S. cerevisiae, luminescence, secondary, dose response (AID 2388).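 Note: yeast reporter cells carrying a calcineurin-responsive lacZ construct stimulated with calcium chloride; luminescent beta-galactosidase reporter signal in whole cells rather than isolated phosphatase activity; potency for inhibition where a drop in reporter signal means calcineurin blockade.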 It counts as functional, cell-based.
Serine/threonine-protein phosphatase, sequence (B9W6M3 whole entry): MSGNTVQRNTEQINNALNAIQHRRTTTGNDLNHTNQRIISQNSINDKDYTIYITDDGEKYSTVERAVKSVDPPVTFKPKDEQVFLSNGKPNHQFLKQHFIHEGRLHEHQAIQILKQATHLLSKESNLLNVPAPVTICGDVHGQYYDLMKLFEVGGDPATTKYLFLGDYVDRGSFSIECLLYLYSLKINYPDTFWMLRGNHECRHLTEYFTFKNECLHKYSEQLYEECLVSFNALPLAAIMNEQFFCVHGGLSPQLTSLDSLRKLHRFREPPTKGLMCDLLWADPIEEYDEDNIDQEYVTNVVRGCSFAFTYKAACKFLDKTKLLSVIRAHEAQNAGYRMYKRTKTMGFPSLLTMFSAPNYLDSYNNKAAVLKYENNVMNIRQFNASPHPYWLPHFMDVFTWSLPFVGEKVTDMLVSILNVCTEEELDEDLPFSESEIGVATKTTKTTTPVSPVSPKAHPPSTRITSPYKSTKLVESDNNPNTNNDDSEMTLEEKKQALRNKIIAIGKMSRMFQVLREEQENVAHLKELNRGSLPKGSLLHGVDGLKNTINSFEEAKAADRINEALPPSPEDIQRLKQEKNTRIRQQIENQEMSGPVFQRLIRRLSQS
The target in experiment [18] is ATP-dependent molecular chaperone HSP82 (Candida albicans (strain WO-1) (Yeast), UniProt C4YTQ8). Kind of experiment: steroid-induced GRE reporter decrease in yeast – S. cerevisiae, luminescence, Hsp90 inhibitor project, dose response (AID 2400).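 Note: beta-galactosidase luminescence from glucocorticoid response element reporter as proxy for Hsp90 function; inhibitor potency where signal loss means Hsp90 inhibition.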 It counts as functional, cell-based.
ATP-dependent molecular chaperone HSP82, sequence (C4YTQ8 whole entry): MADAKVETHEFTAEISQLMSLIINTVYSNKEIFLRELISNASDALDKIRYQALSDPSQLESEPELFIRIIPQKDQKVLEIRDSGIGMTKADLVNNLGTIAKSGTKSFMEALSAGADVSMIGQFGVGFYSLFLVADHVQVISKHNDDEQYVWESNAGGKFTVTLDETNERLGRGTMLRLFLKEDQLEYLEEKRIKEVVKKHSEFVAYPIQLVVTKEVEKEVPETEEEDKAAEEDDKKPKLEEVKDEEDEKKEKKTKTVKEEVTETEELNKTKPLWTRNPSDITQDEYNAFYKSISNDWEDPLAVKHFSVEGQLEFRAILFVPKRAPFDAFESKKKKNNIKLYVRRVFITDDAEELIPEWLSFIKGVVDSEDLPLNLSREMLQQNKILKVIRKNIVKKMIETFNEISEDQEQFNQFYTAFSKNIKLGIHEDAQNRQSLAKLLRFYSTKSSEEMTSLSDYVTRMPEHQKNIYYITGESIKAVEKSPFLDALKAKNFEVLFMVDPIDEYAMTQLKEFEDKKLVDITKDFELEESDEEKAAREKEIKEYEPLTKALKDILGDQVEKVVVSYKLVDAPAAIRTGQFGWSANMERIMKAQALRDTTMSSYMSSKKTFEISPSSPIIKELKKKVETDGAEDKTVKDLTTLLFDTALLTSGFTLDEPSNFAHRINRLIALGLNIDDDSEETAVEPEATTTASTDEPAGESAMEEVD
Experiment [19] can be described thus: rise of 2N DNA cells, HeLa – IC50, dose response (AID 1117349). It counts as functional, cell-based.
Experiment [20] is described as follows: rise of 4N DNA cells, HeLa – IC50, dose response (AID 1117351). It counts as functional, cell-based.
Experiment [21] is described as follows: IC50 of insulin release inhibition, rat insulinoma INS-1E line, 5 mM glucose, cell-based (AID 1117331). It counts as functional.

Glutathione-S-transferase, sequence (Q26513 whole entry): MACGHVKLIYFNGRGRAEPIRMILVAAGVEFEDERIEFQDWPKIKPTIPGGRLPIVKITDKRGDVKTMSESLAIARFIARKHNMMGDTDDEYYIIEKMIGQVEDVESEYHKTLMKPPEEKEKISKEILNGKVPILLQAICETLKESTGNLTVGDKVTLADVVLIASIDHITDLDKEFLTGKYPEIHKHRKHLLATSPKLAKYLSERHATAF

As for `Oc1ccccc1-c1cc(C(F)(F)C(F)F)[nH]n1`, the CC50 in experiment [1] was > 40 µM (active).

Turning to `COC(=O)CCC(=O)OC1(C)C(=O)C2=CN(CCCOC(C)C)C(c3ccc(OC)cc3)=CC2=C(Br)C1=O` (configuration not stated), the concentration for a half-maximal effect (EC50) is 46.9 µM (active) in experiment [2] and 42 µM (active) in experiment [3]. The IC50 was 15.4 µM (active) in experiment [4], 19.8 µM (active) at Genome polyprotein and > 100 µM (active) in [5].

On to `CCOC(=O)c1c(N)c2cc([N+](=O)[O-])cnc2n1C`, for which the IC50 was > 109 µM (inactive) in [6] and > 83.4 µM (inactive) in experiment [7].

For the compound `C[C@H]1CN([C@@H](C)CO)S(=O)(=O)c2ccc(C#CC(C)(C)O)cc2O[C@H]1CN(C)Cc1ccc(-c2ccccc2)cc1`, the AC50 is > 60 µM (inactive) in experiment [8] and 20.4 µM (active) in experiment [9].

On to `c1ccc(-c2nc(NCCN3CCCC3)c3ccccc3n2)cc1`, for which the IC50 in [10] and in [11] was > 80 µM (inactive) each time.

With `CC(C)c1ccc(OCCn2c(=S)[nH]c3ccccc32)cc1`, in experiment [12], the AC50 is 27.3 µM (active).

Regarding `CC(=O)N(O)CCCCCNC(=O)CCC(=O)N(O)CCCCCNC(=O)CCC(=O)N(O)CCCCCN` [DEFEROXAMINE MESYLATE], the EC50 in [13] was > 150 µM (inactive); in “cells [14]”, 225 µM (active); in experiment [15], 0.578 µM (active); in “cells [16]”, > 350 µM (not active); in experiment [17], > 180 µM (inactive); in experiment [18], > 150 µM (inactive). For the same compound, the IC50 in [19] and in [20] was > 10 µM (inactive) in each case.

Take `CN1CCC(N(Cc2cccs2)c2ccccc2)CC1` [THENALIDINE]: in [21], the IC50 is 20.4 µM (inactive).
